Calls of active or inactive are those of the source.
Experiments:
[1] = Trypanosoma cruzi growth suppression in host cells – NIH3T3 host cells, beta-gal luminescence, confirmation (AID 2044); format: functional, cell-based;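 also: intracellular parasites grown in NIH/3T3 mouse fibroblasts as host cells; luminescent beta-galactosidase reporter signal from transgenic T. cruzi replicating inside host cells; inhibitors lower the luminescence signal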
[2] = NIH3T3 cell viability loss – ATP luminescence, mouse fibroblasts, counter-screen, dose response (AID 2010); format: functional, cell-based;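 also: cells exposed to compound for about 90 hours before reading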
[3] = Luminescence Cell-Based Dose Retest to Confirm Inhibitors of Cancer Stem Cells. [Related pubchem assays (depositor defined):AID2717, AID2721]; format: functional; settings: Homo sapiens
[4] = target: T1, Heat shock factor protein 1 (Mus musculus, UniProt P38532); assay: enhancement of HSF1-driven luciferase signal – cell-based, NIH3T3, luminescence, dose retest, confirmation (AID 435004); format: functional;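 also: stress induced by proteasome inhibitor MG132 added 30 min after compound; luciferase reporter driven by HSF1 response element in NIH3T3 cells; actives raise luminescence as potentiators of the MG132 stress response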
T1 sequence (P38532 whole entry): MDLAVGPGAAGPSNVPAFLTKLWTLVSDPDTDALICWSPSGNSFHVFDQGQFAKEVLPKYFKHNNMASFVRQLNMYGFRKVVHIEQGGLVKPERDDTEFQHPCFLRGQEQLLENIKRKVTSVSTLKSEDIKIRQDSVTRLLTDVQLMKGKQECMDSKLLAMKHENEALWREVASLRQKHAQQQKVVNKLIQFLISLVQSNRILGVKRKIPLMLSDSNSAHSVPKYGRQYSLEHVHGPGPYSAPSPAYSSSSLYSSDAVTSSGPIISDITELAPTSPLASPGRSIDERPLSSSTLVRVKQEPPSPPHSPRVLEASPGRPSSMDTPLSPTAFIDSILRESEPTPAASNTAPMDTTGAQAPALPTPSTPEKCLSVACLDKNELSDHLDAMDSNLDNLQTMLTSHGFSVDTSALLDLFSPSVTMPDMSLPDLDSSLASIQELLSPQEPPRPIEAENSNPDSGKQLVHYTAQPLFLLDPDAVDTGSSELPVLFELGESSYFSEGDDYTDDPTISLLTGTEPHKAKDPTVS

[5] = target: Heat shock protein HSP 90-alpha (Homo sapiens, UniProt P07900); format: functional, organism-based
[6] = target: T2, High affinity choline transporter 1 (Homo sapiens, UniProt Q9GZV3); assay: human choline transporter blockers, potency – cell-based, 5-point CRC, membrane potential dye, dose response (AID 504840); format: functional
T2 sequence (Q9GZV3 whole entry): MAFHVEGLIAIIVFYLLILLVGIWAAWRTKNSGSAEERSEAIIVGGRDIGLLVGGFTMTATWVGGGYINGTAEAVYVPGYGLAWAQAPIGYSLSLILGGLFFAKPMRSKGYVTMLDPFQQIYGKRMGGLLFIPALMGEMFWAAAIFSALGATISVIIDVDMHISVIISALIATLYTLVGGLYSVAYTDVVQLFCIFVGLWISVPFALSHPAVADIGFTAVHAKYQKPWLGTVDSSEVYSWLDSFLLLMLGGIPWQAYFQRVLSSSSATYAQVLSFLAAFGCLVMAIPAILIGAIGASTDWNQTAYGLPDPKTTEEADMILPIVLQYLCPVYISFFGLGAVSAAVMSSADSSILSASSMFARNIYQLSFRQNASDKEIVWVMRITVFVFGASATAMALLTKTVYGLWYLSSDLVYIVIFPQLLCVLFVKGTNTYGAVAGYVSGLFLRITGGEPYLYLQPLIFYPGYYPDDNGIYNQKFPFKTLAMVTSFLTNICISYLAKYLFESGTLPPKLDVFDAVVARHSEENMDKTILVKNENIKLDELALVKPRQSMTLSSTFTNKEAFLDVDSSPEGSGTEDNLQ

[7] = tested on: Vero; assay: viability of Vero cells under compound – cytotoxicity control for flavivirus capping enzyme inhibitors (AID 588742); format: functional; settings: Chlorocebus sabaeus
[8] = tested on: Vero; assay: cells; format: functional; settings: Chlorocebus sabaeus
[9] = target: Genome polyprotein (dengue virus type 2, UniProt P29990); assay: flavivirus cap methylation enzyme inhibition – biochemical, confirmation dose response, primary screen (AID 588689); format: functional
[10] = target: T3, Polyadenylate-binding protein 1 (Homo sapiens, UniProt P11940); assay: MLLE binding blockers, Cy5 peptide tracer – biochemical, fluorescence polarization, Cy5-PAM2 peptide, secondary, miRNA deadenylation inhibitor project, dose response (AID 602260); format: functional; settings: read-out: IC50_Mean
[11] = target: T3, Polyadenylate-binding protein 1; assay: MLLE domain peptide-binding blockers, IC50 – biochemical, fluorescence polarization, FITC-PAM2 peptide, dose response (AID 602259); format: functional; settings: read-out: IC50_Mean
[12] = tested on: CHO-K1; assay: Counterscreen for antagonists of the orexin 1 receptor (OX1R; HCRTR1): Homogeneous time resolved fluorescence (HTRF)-based cell-based dose response assay to identify antagonists of the parental CHO-K1 cell line. [Related pubchem assays (depositor defined):AID434989, AID435008, AID463079, AID485270, AID492963, AID492964, AID492965, AID493232, AID504699, AID504701]; format: functional; settings: Cricetulus griseus;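 also: potency for inhibition of ATP-stimulated IP1 production as antagonists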
[13] = Counterscreen for antagonists of the orexin 1 receptor (OX1R; HCRTR1): Fluorescence-based cell-based high throughput dose response assay to identify antagonists of the parental CHO cell line. [Related pubchem assays (depositor defined):AID434989, AID435008, AID463079, AID485270, AID492963, AID492964, AID492965, AID493232, AID504699, AID504701]; format: functional
[14] = target: T4, Orexin/Hypocretin receptor type 1 (Homo sapiens, UniProt O43613); assay: Homogeneous Time Resolved Fluorescence (HTRF)-based cell-based high throughput dose response assay for antagonists of the orexin 1 receptor (OX1R; HCRTR1). [Related pubchem assays (depositor defined):AID434989, AID435008, AID463079, AID485270, AID492963, AID492964, AID492965, AID493232, AID504717, AID504718]; format: functional
T4 sequence (O43613 whole entry): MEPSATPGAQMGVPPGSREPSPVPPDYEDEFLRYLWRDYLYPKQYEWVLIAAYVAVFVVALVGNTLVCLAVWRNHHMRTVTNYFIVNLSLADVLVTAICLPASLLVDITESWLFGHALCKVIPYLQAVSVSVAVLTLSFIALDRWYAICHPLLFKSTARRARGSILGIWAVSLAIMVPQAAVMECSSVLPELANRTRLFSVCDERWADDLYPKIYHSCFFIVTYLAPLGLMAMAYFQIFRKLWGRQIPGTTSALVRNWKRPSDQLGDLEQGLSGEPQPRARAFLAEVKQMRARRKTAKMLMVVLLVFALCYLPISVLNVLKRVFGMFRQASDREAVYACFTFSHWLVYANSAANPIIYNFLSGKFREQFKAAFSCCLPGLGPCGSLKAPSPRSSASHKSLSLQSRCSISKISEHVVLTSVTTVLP

[15] = target: T4, Orexin/Hypocretin receptor type 1; assay: Fluorescence-based cell-based high throughput dose response assay for antagonists of the orexin 1 receptor (OX1R; HCRTR1). [Related pubchem assays (depositor defined):AID434989, AID435008, AID463079, AID485270, AID492963, AID492964, AID492965, AID493232, AID504717, AID504718]; format: functional
[16] = target: T5, Orexin receptor type 2 (Homo sapiens, UniProt O43614); assay: Counterscreen assay for antagonists of the orexin 1 receptor (OX1R; HCRTR1): Fluorescence-based cell-based dose response assay for antagonists of the orexin 2 receptor (OX2R; HCRTR2), run by assay provider.; format: functional
T5 sequence (O43614 whole entry): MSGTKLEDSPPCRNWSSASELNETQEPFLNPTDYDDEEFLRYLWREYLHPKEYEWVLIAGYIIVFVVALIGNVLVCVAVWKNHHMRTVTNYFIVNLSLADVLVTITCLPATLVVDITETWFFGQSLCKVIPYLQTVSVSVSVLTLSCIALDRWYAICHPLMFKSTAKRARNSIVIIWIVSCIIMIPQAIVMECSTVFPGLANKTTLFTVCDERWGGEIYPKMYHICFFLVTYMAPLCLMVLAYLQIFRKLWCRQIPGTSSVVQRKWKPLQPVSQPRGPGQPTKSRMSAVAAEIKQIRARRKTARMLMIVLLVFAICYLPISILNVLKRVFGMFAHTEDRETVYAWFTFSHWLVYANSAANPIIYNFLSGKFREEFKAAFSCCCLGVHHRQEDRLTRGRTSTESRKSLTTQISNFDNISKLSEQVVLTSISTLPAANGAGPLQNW

[17] = target: T5, Orexin receptor type 2; assay: Counterscreen assay for antagonists of the orexin 1 receptor (OX1R; HCRTR1): Homogeneous Time Resolved Fluorescence (HTRF)-based cell-based dose response assay for antagonists of the orexin 2 receptor (OX2R; HCRTR2), run by assay provider.; format: functional
[18] = target: T6, DNA repair and recombination protein RAD54-like (Homo sapiens, UniProt Q92698); assay: RAD54 Holliday junction migration blockers – biochemical, fluorescence, cherry-picked samples, dose series, confirmation (AID 651657); format: functional
T6 sequence (Q92698 whole entry): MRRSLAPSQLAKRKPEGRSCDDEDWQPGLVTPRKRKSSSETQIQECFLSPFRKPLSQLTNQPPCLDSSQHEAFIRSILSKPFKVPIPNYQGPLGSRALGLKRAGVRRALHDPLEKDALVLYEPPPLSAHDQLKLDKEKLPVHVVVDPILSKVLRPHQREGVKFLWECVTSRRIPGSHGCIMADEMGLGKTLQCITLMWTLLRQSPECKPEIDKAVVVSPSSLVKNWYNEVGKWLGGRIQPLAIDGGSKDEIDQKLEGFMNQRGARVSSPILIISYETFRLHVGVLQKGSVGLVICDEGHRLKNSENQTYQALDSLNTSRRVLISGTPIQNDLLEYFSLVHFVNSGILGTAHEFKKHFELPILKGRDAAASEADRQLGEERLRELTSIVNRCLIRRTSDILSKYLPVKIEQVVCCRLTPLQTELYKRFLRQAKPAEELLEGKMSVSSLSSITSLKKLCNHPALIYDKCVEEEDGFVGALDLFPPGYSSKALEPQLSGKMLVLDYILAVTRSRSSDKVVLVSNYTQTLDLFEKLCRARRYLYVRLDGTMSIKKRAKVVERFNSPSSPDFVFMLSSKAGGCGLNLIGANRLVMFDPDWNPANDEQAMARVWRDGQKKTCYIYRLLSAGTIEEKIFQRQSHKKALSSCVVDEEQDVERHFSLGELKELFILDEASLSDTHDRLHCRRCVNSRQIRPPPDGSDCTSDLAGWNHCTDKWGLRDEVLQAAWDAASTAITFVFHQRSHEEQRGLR

[19] = target: T7, Hepatocyte nuclear factor 4-alpha (Homo sapiens, UniProt P41235); format: functional, cell-based;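 also: biochemical luminescence-based dose-response counterscreen measuring inhibition of HNF4 dimerization, run alongside a screen for blockers of ABHD5–perilipin-5 interaction; split luciferase complementation of HNF4 fusion proteins in cell lysate measuring dimerization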
T7 sequence (P41235 whole entry): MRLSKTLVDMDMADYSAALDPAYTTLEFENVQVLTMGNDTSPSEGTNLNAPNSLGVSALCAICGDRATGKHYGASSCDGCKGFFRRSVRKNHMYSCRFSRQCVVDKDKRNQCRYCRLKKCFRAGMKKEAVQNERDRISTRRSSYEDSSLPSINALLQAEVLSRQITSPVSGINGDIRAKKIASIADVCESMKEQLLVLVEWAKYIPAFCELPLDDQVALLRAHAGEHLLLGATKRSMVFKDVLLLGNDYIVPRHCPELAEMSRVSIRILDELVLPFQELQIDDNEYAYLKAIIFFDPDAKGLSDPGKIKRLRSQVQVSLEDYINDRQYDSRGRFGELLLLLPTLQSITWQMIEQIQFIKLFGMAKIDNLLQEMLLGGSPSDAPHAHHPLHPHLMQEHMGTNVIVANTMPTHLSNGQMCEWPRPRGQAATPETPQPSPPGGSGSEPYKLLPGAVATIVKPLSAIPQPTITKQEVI

T3 sequence (P11940 whole entry, the tested form may be a part): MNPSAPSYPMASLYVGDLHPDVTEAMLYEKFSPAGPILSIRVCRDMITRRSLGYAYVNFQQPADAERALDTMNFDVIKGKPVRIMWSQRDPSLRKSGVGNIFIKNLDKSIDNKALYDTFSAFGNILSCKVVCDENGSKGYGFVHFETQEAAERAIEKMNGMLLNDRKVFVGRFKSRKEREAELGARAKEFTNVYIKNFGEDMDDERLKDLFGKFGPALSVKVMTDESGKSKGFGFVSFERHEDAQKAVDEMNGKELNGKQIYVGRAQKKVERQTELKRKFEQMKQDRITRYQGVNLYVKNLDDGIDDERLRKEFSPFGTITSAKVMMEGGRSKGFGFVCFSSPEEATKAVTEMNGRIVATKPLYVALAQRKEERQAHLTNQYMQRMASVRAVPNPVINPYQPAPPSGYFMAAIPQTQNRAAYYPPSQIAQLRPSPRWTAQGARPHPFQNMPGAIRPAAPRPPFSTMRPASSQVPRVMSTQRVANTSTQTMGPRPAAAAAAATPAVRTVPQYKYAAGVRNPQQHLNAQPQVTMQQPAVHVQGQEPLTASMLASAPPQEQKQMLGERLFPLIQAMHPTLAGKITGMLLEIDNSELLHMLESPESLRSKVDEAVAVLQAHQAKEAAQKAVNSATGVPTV
Chain of Genome polyprotein (P29990 2492-3391 limits assumed): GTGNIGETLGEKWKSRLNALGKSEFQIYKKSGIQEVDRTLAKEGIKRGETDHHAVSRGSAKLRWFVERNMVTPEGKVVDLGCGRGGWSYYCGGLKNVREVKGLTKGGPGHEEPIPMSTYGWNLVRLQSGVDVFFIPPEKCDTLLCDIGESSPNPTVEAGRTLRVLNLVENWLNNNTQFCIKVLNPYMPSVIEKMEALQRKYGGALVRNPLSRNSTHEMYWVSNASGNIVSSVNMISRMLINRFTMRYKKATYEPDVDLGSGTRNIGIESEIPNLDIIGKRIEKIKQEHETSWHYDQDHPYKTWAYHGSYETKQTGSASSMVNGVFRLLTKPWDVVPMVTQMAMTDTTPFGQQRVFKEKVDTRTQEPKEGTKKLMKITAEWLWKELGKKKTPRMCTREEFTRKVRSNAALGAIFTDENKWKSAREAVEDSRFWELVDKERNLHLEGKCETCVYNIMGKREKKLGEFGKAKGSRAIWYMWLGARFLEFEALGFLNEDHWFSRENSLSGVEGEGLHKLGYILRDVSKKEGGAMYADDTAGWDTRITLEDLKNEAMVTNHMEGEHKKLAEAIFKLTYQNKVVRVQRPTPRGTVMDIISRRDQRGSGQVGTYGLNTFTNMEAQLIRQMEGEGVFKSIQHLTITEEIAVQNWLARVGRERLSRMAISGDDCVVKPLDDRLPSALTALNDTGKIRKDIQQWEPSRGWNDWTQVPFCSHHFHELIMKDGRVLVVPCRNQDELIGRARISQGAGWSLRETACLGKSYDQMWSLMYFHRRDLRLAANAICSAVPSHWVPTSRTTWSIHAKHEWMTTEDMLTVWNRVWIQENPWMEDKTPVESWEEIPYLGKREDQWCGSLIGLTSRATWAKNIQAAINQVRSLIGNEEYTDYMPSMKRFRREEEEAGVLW

SMILES: CC(C)(C)c1ccc(C(=O)CC(Sc2ccc(Cl)cc2)C(=O)O)cc1 (stereo unspecified)
- EC50 [1]: 2.02 µM (active)
- EC50 [2]: > 60 µM (not active)
- AC50 [3]: 4.12 µM (active)
- EC50 [4]: 137 µM (active)
- AC50 [5]: 4.71 µM (active)
- IC50 [6]: 12.6 µM (active)
- CC50 [7]: 35.9 µM (active)
- CC50 [8]: 23.2 µM (active)
- IC50 [9]: 38.1 µM (active)
- IC50 [10]: > 66 µM (inactive)
- IC50 [11]: > 66 µM (inactive)

SMILES: CCCCN(CCCC)CCNC(=O)c1cn(CC)c2ccc(S(=O)(=O)N(C)C3CCCCC3)cc2c1=O
- IC50 [6]: 15.8 µM (active)

SMILES: Cc1cc(C)n2nc(-c3cccc(Br)c3)cc2n1
- IC50 [12]: > 66.2 µM (inactive)
- IC50 [13]: > 49.7 µM (inactive)
- IC50 [14]: 2.05 µM (active)
- IC50 [15]: 9.69 µM (active)
- IC50 [16]: > 88.8 µM (inactive)
- IC50 [17]: > 50 µM (inactive)

SMILES: CCN1CCN(CCCNC(=O)c2cc3c(O)nc4ccccc4c3s2)CC1
- AC50 [18]: 46.5 µM (active)

SMILES: CCN(Cc1ccccc1)S(=O)(=O)c1cc(C(=O)NC2CCCCCC2)ccc1OC
- IC50 [6]: 0.575 µM (active)

SMILES: Cc1noc(C)c1COC(=O)c1ccc2c(c1)S(=O)(=O)c1ccccc1C2=O
- IC50 [12]: 18.5 µM (inactive)
- IC50 [13]: > 49.7 µM (inactive)
- IC50 [14]: 1.2 µM (active)
- IC50 [15]: 4 µM (active)
- IC50 [16]: > 88.8 µM (inactive)
- IC50 [17]: > 50 µM (inactive)

SMILES: Cc1c(C(=O)NCCSCc2cccc(C(F)(F)F)c2)cnn1-c1ccc(Cl)cc1
- AC50 [5]: 7.25 µM (active)

SMILES: c1c[nH]c(CN2CCN(Cc3ncc[nH]3)CC2)n1
- AC50 [18]: 63.3 µM (active)

SMILES: CC(=C/c1ccccc1)/C=C1/SC(N2CCOCC2)=NC1=O
- IC50 [12]: 40.7 µM (inactive)
- IC50 [13]: > 49.8 µM (inactive)
- IC50 [14]: 0.51 µM (active)
- IC50 [15]: 3.82 µM (active)
- IC50 [16]: > 88.8 µM (inactive)
- IC50 [17]: 26 µM (inactive)

SMILES: Cc1ccc(O)c(C(=O)C=Cc2ccccc2)c1
- IC50 [19]: 4 µM (active)

SMILES: N#Cc1ccc(C(C(=O)Nc2ccc3c(c2)OCCO3)n2c(=O)c(-c3ccco3)nc3ccccc32)cc1 (stereo unspecified)
- IC50 [19]: 9.98 µM (active)

Source: ChEMBL document CHEMBL1201862, “PubChem BioAssay data set” (2004)
